US20070270484A1, “3'-N-Substituted-3-O-Substituted Erythronolide a Derivatives” (priority 2003, published 2007)
Values after ≈ are worked out from the molar mass of the structure shown.

Tests used:
H. inflenza ATCC 49247 = experiment: MIC, agar incorporation method (NCCLS agar dilution method); format: cell-based, Haemophilus influenzae; details: for MIC: Haemophilus influenzae, ATCC49247, read-out: Minimum Inhibitory Concentrations, H. inflenza ATCC 49247; for Minimum Inhibitory Concentrations, H. inflenza ATCC 49247: agar dilution, 18-24 hours, 35±2° C., 5% CO2
Description: Minimum inhibitory concentrations (μg/ml) were obtained for representative compounds of the invention, which are given in Table 2.
(§1) Drug dilutions and the agar plates are prepared by NCCLS method. Inoculum is prepared by direct colony suspensions in normal saline and adjusted to 0.5 McFarland turbidity and subsequently diluted as per NCCLS guidelines in order to obtain 10^4 CFU/spot. CFU/ml of a few randomly selected cultures is performed. The cultures are replicated on the agar plates using replicator (Denley's multipoint). The plates are incubated at 35±2° C. and in 5% CO2 atmosphere (for respiratory and Haemophilus strains) for 18-24 hours at 35±2° C. Minimum inhibitory concentrations (MIC) are determined after 18-24 hours. Q. C. strains are also included in each run of the study. The cation content of Mueller Hinton agar is checked by performing disk […] of 10 μg gentamicin disk against Pseudomonas aeroginosa ATCC 27853. The zone of inhibition should fall between 16-21 mm. The concentration of drug at which there is complete disappearance of growth spot or formation of less than 10 colonies per spot is considered as MIC.

MoraXella MI = experiment: as above; format: cell-based; details: 18-24 hours, 35±2° C.; for MIC: Moraxella, read-out: Minimum Inhibitory Concentrations, MoraXella MI
Description: as §1

S. pneum AB 34 (mef) = experiment: as above; format: cell-based, streptococcus pneumoniae; details: 18-24 hours, 35±2° C., 5% CO2, mef: efflux pump mef genes; for MIC: Streptococcus pneumoniae, read-out: Minimum Inhibitory Concentrations, S. pneum AB 34 (mef)
Description: as §1

S. pneum CS 1687 (mef) = experiment: as above; format: cell-based, streptococcus pneumoniae; details: 18-24 hours, 35±2° C., 5% CO2, mef: efflux pump mef genes; for MIC: Streptococcus pneumoniae, read-out: Minimum Inhibitory Concentrations, S. pneum CS 1687 (mef)
Description: as §1

S. pneum ATCC 6303 = experiment: as above; format: cell-based, streptococcus pneumoniae; details: 35±2° C.; for MIC: Streptococcus pneumoniae, ATCC6303, 18-24 hours, 5% CO2, read-out: Minimum Inhibitory Concentrations, S. pneum ATCC 6303; for Minimum Inhibitory Concentrations, S. pneum ATCC 6303: 18-24 hours, 5% CO2
Description: as §1

S. pneum 1251 (mef) = experiment: as above; format: cell-based, streptococcus pneumoniae; details: 18-24 hours, 35±2° C., 5% CO2, mef: efflux pump mef genes; for MIC: Streptococcus pneumoniae, read-out: Minimum Inhibitory Concentrations, S. pneum 1251 (mef)
Description: as §1

S. pneum ATCC 49619 = experiment: as above; format: cell-based, streptococcus pneumoniae; details: 35±2° C.; for MIC: Streptococcus pneumoniae, ATCC49619, 18-24 hours, 5% CO2, read-out: Minimum Inhibitory Concentrations, S. pneum ATCC 49619; for Minimum Inhibitory Concentrations, S. pneum ATCC 49619: 18-24 hours, 5% CO2
Description: as §1

S. pneum AB 30 (erm) = experiment: microbe, parasite or virus in culture; format: cell-based, streptococcus pneumoniae; details: for MIC: Streptococcus pneumoniae, read-out: Minimum Inhibitory Concentrations, S. pneum AB 30 (erm); for Minimum Inhibitory Concentrations, S. pneum AB 30 (erm): agar dilution, 18-24 hours, 35±2° C., 5% CO2, erm: ribosomal modification (mutation) erm genes
Description: as §1

S. pneum 1275 (erm) = experiment: microbe, parasite or virus in culture; format: cell-based, streptococcus pneumoniae; details: for MIC: Streptococcus pneumoniae, read-out: Minimum Inhibitory Concentrations, S. pneum 1275 (erm); for Minimum Inhibitory Concentrations, S. pneum 1275 (erm): agar dilution, 18-24 hours, 35±2° C., 5% CO2, erm: ribosomal modification (mutation) erm genes
Description: as §1

S. pneum AB 14 (erm) = experiment: microbe, parasite or virus in culture; format: cell-based, streptococcus pneumoniae; details: for Minimum Inhibitory Concentrations, S. pneum AB 14 (erm): agar dilution, 18-24 hours, 35±2° C., 5% CO2, erm: ribosomal modification (mutation) erm genes
Description: as §1

S. pneum 1294 (mef) = experiment: microbe, parasite or virus in culture; format: cell-based, streptococcus pneumoniae; details: for Minimum Inhibitory Concentrations, S. pneum 1294 (mef): agar dilution, 18-24 hours, 35±2° C., 5% CO2, mef: efflux pump mef genes
Description: as §1

S. pneum 1256 (erm) = experiment: microbe, parasite or virus in culture; format: cell-based, streptococcus pneumoniae; details: for Minimum Inhibitory Concentrations, S. pneum 1256 (erm): agar dilution, 18-24 hours, 35±2° C., 5% CO2, erm: ribosomal modification (mutation) erm genes
Description: as §1

S. pneum AB 29 (erm) = experiment: microbe, parasite or virus in culture; format: cell-based, streptococcus pneumoniae; details: for MIC: Streptococcus pneumoniae, read-out: Minimum Inhibitory Concentrations, S. pneum AB 29 (erm); for Minimum Inhibitory Concentrations, S. pneum AB 29 (erm): agar dilution, 18-24 hours, 35±2° C., 5% CO2, erm: ribosomal modification (mutation) erm genes
Description: as §1

Molecule	Minimum Inhibitory Concentrations, H. inflenza ATCC 49247 (H. inflenza ATCC 49247)	Minimum Inhibitory Concentrations, MoraXella MI (MoraXella MI)	Minimum Inhibitory Concentrations, S. pneum AB 34 (mef) (S. pneum AB 34 (mef))	Minimum Inhibitory Concentrations, S. pneum CS 1687 (mef) (S. pneum CS 1687 (mef))	Minimum Inhibitory Concentrations, S. pneum ATCC 6303 (S. pneum ATCC 6303)	Minimum Inhibitory Concentrations, S. pneum 1251 (mef) (S. pneum 1251 (mef))	Minimum Inhibitory Concentrations, S. pneum ATCC 49619 (S. pneum ATCC 49619)	Minimum Inhibitory Concentrations, S. pneum AB 30 (erm) (S. pneum AB 30 (erm))	Minimum Inhibitory Concentrations, S. pneum 1275 (erm) (S. pneum 1275 (erm))	Minimum Inhibitory Concentrations, S. pneum AB 14 (erm) (S. pneum AB 14 (erm))	Minimum Inhibitory Concentrations, S. pneum 1294 (mef) (S. pneum 1294 (mef))	Minimum Inhibitory Concentrations, S. pneum 1256 (erm) (S. pneum 1256 (erm))	Minimum Inhibitory Concentrations, S. pneum AB 29 (erm) (S. pneum AB 29 (erm))	further results
CC[C@H]1OC(=O)[C@H](C)[C@@H](O[C@H]2C[C@@](C)(OC)[C@@H](O)[C@H](C)O2)[C@H](C)[C@@H](O[C@@H]2O[C@H](C)C[C@H](N(C)C)[C@H]2O)[C@](C)(OC)C[C@@H](C)C(=O)[C@H](C)[C@@H](O)[C@]1(C)O [C, Clarithromycin, reference compound]														MIC (H. inflenza ATCC 49247): 8 µg/mL (≈ 10.7 µM); MIC (MoraXella MI): 0.125 µg/mL (≈ 0.167 µM); MIC (S. pneum AB 34 (mef)): > 16 µg/mL; MIC (S. pneum CS 1687 (mef)): > 16 µg/mL; MIC (S. pneum ATCC 6303): 0.008 µg/mL (≈ 0.0107 µM); MIC (S. pneum 1251 (mef)): 8 µg/mL (≈ 10.7 µM); MIC (S. pneum ATCC 49619): 0.008 µg/mL (≈ 0.0107 µM); MIC (S. pneum AB 30 (erm)): > 16 µg/mL; MIC (S. pneum 1275 (erm)): > 16 µg/mL; MIC (S. pneum AB 14 (erm); Streptococcus pneumoniae, read-out: Minimum Inhibitory Concentrations, S. pneum AB 14 (erm)): > 16 µg/mL; MIC (S. pneum 1294 (mef); Streptococcus pneumoniae, read-out: Minimum Inhibitory Concentrations, S. pneum 1294 (mef)): > 16 µg/mL; MIC (S. pneum 1256 (erm); Streptococcus pneumoniae, read-out: Minimum Inhibitory Concentrations, S. pneum 1256 (erm)): > 16 µg/mL; MIC (S. pneum AB 29 (erm)): > 16 µg/mL
C#CCN(C)C1CC(C)OC(OC2C(C)C(OC(=O)Cc3ccc(F)cc3)C(C)C(=O)OC(CC)C(C)(O)C(O)C(C)C(=O)C(C)CC2(C)OC)C1O (stereo not drawn) [Compound No. 18, 3-O-(4-Fluorophenyl)acetyl-5-O-(3′-N-desmethyl-3′-N-propargyl)desosaminyl-6-O-methyl erythronolide A]	>16 µg/mL	16 µg/mL	1 µg/mL	1 µg/mL	1 µg/mL	1 µg/mL	1 µg/mL	>16 µg/mL	>16 µg/mL	16 µg/mL	1 µg/mL	>16 µg/mL	1 µg/mL	
3-O-(2-Fluorophenyl)acetyl-5-O-(3′-N-desmethyl-3′-N-propargyl)desosaminyl-6-O-methyl erythronolide A [Compound No. 21]	>16 µg/mL	0.25 µg/mL	>16 µg/mL	0.5 µg/mL	0.5 µg/mL	0.25 µg/mL	>16 µg/mL	>16 µg/mL	>16 µg/mL	>16 µg/mL	2 µg/mL	>16 µg/mL	>16 µg/mL	
3-O-(2-Pyridyl)acetyl-5-O-(3′-N-desmethyl-3′-N-cyclopropylmethyl)desosaminyl-6-O-methyl erythronolide A [Compound No. 50]	>16 µg/mL	2 µg/mL	>16 µg/mL	1 µg/mL	0.5 µg/mL	0.5 µg/mL	0.5 µg/mL	>16 µg/mL	>16 µg/mL	>16 µg/mL	2 µg/mL	>16 µg/mL	0.5 µg/mL	
CC[C@H]1OC(=O)[C@H](C)C(=O)[C@H](C)[C@@H](O[C@@H]2O[C@H](C)C[C@H](N(C)C)[C@H]2O)[C@](C)(OC)C[C@@H](C)C(=O)[C@H](C)[C@H]2N(CCCCn3cnc(-c4cccnc4)c3)C(=O)O[C@]12C [T, Telithromycin, reference compound]														MIC (H. inflenza ATCC 49247): 2 µg/mL (≈ 2.46 µM); MIC (MoraXella MI): 0.03 µg/mL (≈ 0.0369 µM); MIC (S. pneum AB 34 (mef)): 0.125 µg/mL (≈ 0.154 µM); MIC (S. pneum CS 1687 (mef)): 0.125 µg/mL (≈ 0.154 µM); MIC (S. pneum ATCC 6303): 0.015 µg/mL (≈ 0.0185 µM); MIC (S. pneum 1251 (mef)): 0.5 µg/mL (≈ 0.616 µM); MIC (S. pneum ATCC 49619): 0.008 µg/mL (≈ 0.00985 µM); MIC (S. pneum AB 30 (erm)): 0.25 µg/mL (≈ 0.308 µM); MIC (S. pneum 1275 (erm)): 0.008 µg/mL (≈ 0.00985 µM); MIC (S. pneum AB 29 (erm)): 0.25 µg/mL (≈ 0.308 µM)
CC[C@H]1OC(=O)[C@H](C)[C@@H](O[C@H]2C[C@@](C)(OC)[C@@H](O)[C@H](C)O2)[C@H](C)[C@@H](O[C@@H]2O[C@H](C)C[C@H](N(C)C)[C@H]2O)[C@](C)(O)C[C@@H](C)C(=O)[C@H](C)[C@@H](O)[C@]1(C)O [E, erythromycin A, reference compound]	>16 µg/mL	0.06 µg/mL	>16 µg/mL	>16 µg/mL	0.03 µg/mL	8 µg/mL	0.008 µg/mL	>16 µg/mL	>16 µg/mL	>16 µg/mL	>16 µg/mL	>16 µg/mL	>16 µg/mL	
CCC1OC(=O)C(C)C(OC(=O)Cc2ccc(F)cc2F)C(C)C(OC2OC(C)CC(N(C)Cc3ccccc3)C2O)C(C)(OC)CC(C)C(=O)C(C)C(O)C1(C)O (stereo not drawn) [Compound No. 74, 3-O-(2,4-Difluorophenyl)acetyl-5-O-(3′-N-desmethyl-3′-N-benzyl) desosaminyl-6-O-methyl erythronolide A]		>16 µg/mL	>16 µg/mL	>16 µg/mL	8 µg/mL	>16 µg/mL	>16 µg/mL	>16 µg/mL	>16 µg/mL	16 µg/mL	>16 µg/mL	>16 µg/mL	>16 µg/mL	
